# Measurements published in patent US4342690A, “ω-Heteroaroyl(propionyl or butyryl)-L-prolines” (American Cyanamid Company, priority 1981, dated 1982).
# Target: T1, angiotensin converting enzyme (Oryctolagus cuniculus, UniProt P12822)
# T1 construct: The ACE was extracted from rabbit lung acetone powder; tissue Pel-Freez Biol. Inc; host or cells: rabbit lung (acetone powder)
# T1 sequence (P12822 34-1310): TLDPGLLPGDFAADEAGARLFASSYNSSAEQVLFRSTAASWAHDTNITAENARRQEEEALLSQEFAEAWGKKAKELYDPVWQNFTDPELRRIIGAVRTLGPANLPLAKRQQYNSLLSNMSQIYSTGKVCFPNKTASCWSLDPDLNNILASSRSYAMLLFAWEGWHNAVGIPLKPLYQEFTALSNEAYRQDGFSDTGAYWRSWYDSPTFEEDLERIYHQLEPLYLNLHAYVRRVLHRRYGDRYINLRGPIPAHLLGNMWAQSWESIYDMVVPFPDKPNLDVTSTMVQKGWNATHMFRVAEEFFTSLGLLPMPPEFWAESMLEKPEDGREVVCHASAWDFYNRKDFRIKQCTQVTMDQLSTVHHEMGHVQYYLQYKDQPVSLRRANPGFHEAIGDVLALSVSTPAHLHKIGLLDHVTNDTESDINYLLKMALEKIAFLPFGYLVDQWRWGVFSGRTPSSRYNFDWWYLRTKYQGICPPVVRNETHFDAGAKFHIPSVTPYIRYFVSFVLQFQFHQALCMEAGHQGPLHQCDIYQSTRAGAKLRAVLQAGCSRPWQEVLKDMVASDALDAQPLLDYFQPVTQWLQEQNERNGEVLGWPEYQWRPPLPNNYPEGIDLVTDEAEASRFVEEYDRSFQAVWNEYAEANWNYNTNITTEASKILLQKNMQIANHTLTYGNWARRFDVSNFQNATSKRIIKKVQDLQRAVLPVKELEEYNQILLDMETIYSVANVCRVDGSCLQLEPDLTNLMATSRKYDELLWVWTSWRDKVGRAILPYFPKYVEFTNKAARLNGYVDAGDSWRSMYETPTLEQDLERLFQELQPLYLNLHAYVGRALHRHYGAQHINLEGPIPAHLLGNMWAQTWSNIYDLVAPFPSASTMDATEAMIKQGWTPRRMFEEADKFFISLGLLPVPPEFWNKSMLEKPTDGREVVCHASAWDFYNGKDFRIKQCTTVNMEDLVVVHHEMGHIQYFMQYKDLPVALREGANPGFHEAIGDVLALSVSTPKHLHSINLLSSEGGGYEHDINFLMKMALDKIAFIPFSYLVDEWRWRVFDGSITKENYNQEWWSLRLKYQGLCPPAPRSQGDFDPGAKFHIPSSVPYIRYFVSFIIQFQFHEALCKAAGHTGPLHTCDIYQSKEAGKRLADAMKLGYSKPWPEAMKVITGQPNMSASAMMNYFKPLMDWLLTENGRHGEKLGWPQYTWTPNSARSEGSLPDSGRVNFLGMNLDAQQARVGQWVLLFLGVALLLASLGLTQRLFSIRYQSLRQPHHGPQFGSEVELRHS
# Assay: Spectrophotometric Assay for Angiotensin Converting Enzyme Inhibitors
# Assay type: biochemical
# Conditions: substrate benzoyl-glycyl-histidyl-leucine; crude ACE extract from rabbit lung acetone powder; 30 minutes at 37° C.
# Text: The activity of the novel compounds of this invention as hypotensive agents was established in two systems which measure their ability as angiotensin converting enzyme inhibitors; by utilizing a spectrophotometric assay of the compounds in vitro and by the measurement of the blood pressure lowering effect of the compounds in the aorta-coarcted renal hypertensive rats.
# Spectrophotometric Assay for Angiotensin Converting Enzyme Inhibitors
# The in vitro activity for inhibition of the angiotensin converting enzyme (ACE) was measured by the method of Cushman, D. W. and Cheung, H. S., Biochem. Pharmacol., 20, 1637-1648 (1971), using benzoyl-glycyl-histidyl-leucine as the substrate. The reaction mixture consisted of 50 μl. of potassium phosphate (500 mM., pH 10.2), […]. of sodium chloride (2500 mM.), 25 μl. of substrate (50 mM.), 30 to 50 μl. of the crude extract of ACE, 10 μl. of test compound (2.5 mM.) or vehicle and a suitable amount of distilled water to give a total volume of 250 μl. This reaction mixture was incubated for 30 minutes at 37° C. and the reaction was then terminated by the addition of 250 μl. of 1 N hydrochloric acid. The hippuric acid was then extracted with 1.5 ml. of ethyl acetate by vortex mixing for 15 seconds. After centrifugation, one ml. of th ethyl acetate layer was pipetted into a new tube and vaporated to dryness. The extracted hippuric acid was then dissolved in one ml. of water and the amount of this acid was then measured by its absorbance at 228 nm. The ACE was extracted from rabbit lung acetone powder (Pel-Freez Biol. Inc.) by blending 5 g. of the powder in 50 ml. of phosphate buffer (50 mM., pH 8.3) and then centrifuging at 40,000 g for 40 minutes. The supernatant was then kept at 5° C. and used as the enzyme source. The activity of the ACE inhibitor was calculated as the percent inhibition of ACE activity compared to the control value of that particular assay. A full dose-response inhibitory curve is then performed to determine the IC50 value which may be defined as the molar concentration of a compound that will inhibit the ACE activity by 50%.
row,Structure (SMILES),IC50 [µM]
1,"CC(=O)SC(CC(=O)N1CCC[C@H]1C(=O)O)C(=O)c1ccc(Br)s1 (stereo partly drawn) [Example 2, 1-[3-(Acetylthio)-3-(5-bromo-2-thenoyl)propionyl]-L-proline]",0.109
2,"CC(=O)SC(CC(=O)N1CCC[C@H]1C(=O)O)C(=O)c1cccs1 (stereo partly drawn) [Example 1, 1-[3-(Acetylthio)-3-(2-thenoyl)propionyl]-L-proline]",0.256
3,"CC(=O)SC(CC(=O)N1CCC[C@H]1C(=O)O)C(=O)c1cc2ccccc2o1 (stereo partly drawn) [Example 37, 1-[3-Acetylthio-3-(2-benzofuranylcarbonyl)propionyl]-L-proline]",0.074
4,"CC(=O)SC(C(=O)c1cc2ccccc2s1)C(C)C(=O)N1CCC[C@H]1C(=O)O (stereo partly drawn) [Example 35, 1-[3-Acetylthio-3-(benzo[b]thien-2-ylcarbonyl)-2-methylpropionyl]-L-proline]",21
5,"CC(=O)SC(CC(=O)N1CCC[C@H]1C(=O)O)C(=O)c1ccc(Cl)s1 (stereo partly drawn) [Example 3, 1-[3-(Acetylthio)-3-(5-chloro-2-thenoyl)propionyl]-L-proline]",0.108
6,"CC(=O)SC(CC(=O)N1CCC[C@H]1C(=O)O)C(=O)c1csc2ccccc12 (stereo partly drawn) [Example 4, 1-[3-(Acetylthio)-3-(benzo[b]thien-3-ylcarbonyl)propionyl]-L-proline]",0.139
7,"CC(=O)SC(CC(=O)N1CCC[C@H]1C(=O)O)C(=O)c1ccco1 (stereo partly drawn) [Example 36, 1-[3-Acetylthio-3-(2-furoyl)propionyl]-L-proline]",0.675
